How the values were obtained:
Assay in all cases: cells
Assay type in all cases: functional, cell-based, Homo sapiens
[1] = tested on: COLO-800; details: Homo sapiens, COLO-800;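 further: growth inhibition of COLO-800 cells, read out with a cell viability assay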
Description: SANGER: Inhibition of human COLO-800 cell growth in a cell viability assay.

[2] = tested on: COLO-829; details: Homo sapiens, COLO-829
Description: SANGER: Inhibition of human COLO-829 cell growth in a cell viability assay.

[3] = tested on: CTB-1; details: Homo sapiens, CTB-1
Description: SANGER: Inhibition of human CTB-1 cell growth in a cell viability assay.

[4] = tested on: DEL; details: Homo sapiens, DEL;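 further: growth inhibition of the human DEL cell line, read out with a cell viability assay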
Description: SANGER: Inhibition of human DEL cell growth in a cell viability assay.

[5] = tested on: DMS-79; details: Homo sapiens, DMS-79;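 further: growth inhibition measured with a cell viability assay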
Description: SANGER: Inhibition of human DMS-79 cell growth in a cell viability assay.

[6] = tested on: EC-GI-10; details: Homo sapiens, EC-GI-10
Description: SANGER: Inhibition of human EC-GI-10 cell growth in a cell viability assay.

[7] = tested on: ES1; details: Homo sapiens, ES1;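 further: growth inhibition of ES1 cells, read out with a cell viability assay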
Description: SANGER: Inhibition of human ES1 cell growth in a cell viability assay.

[8] = tested on: EW-16; details: Homo sapiens, EW-16;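 further: growth inhibition of human EW-16 cells, read out as cell viability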
Description: SANGER: Inhibition of human EW-16 cell growth in a cell viability assay.

[9] = tested on: GAK; details: Homo sapiens, GAK;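 further: cell growth inhibition read out by a cell viability assay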
Description: SANGER: Inhibition of human GAK cell growth in a cell viability assay.

[10] = tested on: GT3TKB; details: Homo sapiens, GT3TKB;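 further: growth inhibition of the cell line, read out with a cell viability assay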
Description: SANGER: Inhibition of human GT3TKB cell growth in a cell viability assay.

[11] = tested on: HEL; details: Homo sapiens, HEL;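 further: growth inhibition of HEL cells, read out with a cell viability assay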
Description: SANGER: Inhibition of human HEL cell growth in a cell viability assay.

[12] = tested on: HL-60; details: Homo sapiens, HL-60;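 further: growth inhibition of human HL-60 cells, read out with a cell viability assay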
Description: SANGER: Inhibition of human HL-60 cell growth in a cell viability assay.

[13] = tested on: JAR; details: Homo sapiens, JAR;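 further: growth inhibition of human JAR cells determined with a cell viability assay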
Description: SANGER: Inhibition of human JAR cell growth in a cell viability assay.

[14] = tested on: K562; details: Homo sapiens, K562
Description: SANGER: Inhibition of human K-562 cell growth in a cell viability assay.

[15] = tested on: KARPAS-45; details: Homo sapiens, KARPAS-45;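 further: inhibition of cell line growth, read out through a viability assay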
Description: SANGER: Inhibition of human KARPAS-45 cell growth in a cell viability assay.

[16] = tested on: KE-37; details: Homo sapiens, KE-37;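 further: growth inhibition of KE-37 cells, read out with a cell viability assay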
Description: SANGER: Inhibition of human KE-37 cell growth in a cell viability assay.

[17] = tested on: KU812 cell line; details: Homo sapiens, KU812;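 further: growth inhibition of KU812 cells, read out with a cell viability assay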
Description: SANGER: Inhibition of human KU812 cell growth in a cell viability assay.

[18] = tested on: LAN-6; details: Homo sapiens, LAN-6;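 further: growth inhibition of LAN-6 cells, determined with a cell viability assay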
Description: SANGER: Inhibition of human LAN-6 cell growth in a cell viability assay.

[19] = tested on: LB373-MEL-D; details: Homo sapiens, LB373-MEL-D;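 further: growth inhibition of the cell line, read out in a cell viability assay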
Description: SANGER: Inhibition of human LB373-MEL-D cell growth in a cell viability assay.

[20] = tested on: LB996-RCC; details: Homo sapiens, LB996-RCC
Description: SANGER: Inhibition of human LB996-RCC cell growth in a cell viability assay.

[21] = tested on: LC-2-ad; details: Homo sapiens, LC-2-ad;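 further: growth inhibition of human LC-2-ad cells, read out with a cell viability assay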
Description: SANGER: Inhibition of human LC-2-ad cell growth in a cell viability assay.

[22] = tested on: LNCaP-Clone-FGC; details: Homo sapiens, LNCaP-Clone-FGC
Description: SANGER: Inhibition of human LNCaP-Clone-FGC cell growth in a cell viability assay.

[23] = tested on: LS-513; details: Homo sapiens, LS-513
Description: SANGER: Inhibition of human LS-513 cell growth in a cell viability assay.

[24] = tested on: LU-134-A; details: Homo sapiens, LU-134-A
Description: SANGER: Inhibition of human LU-134-A cell growth in a cell viability assay.

[25] = tested on: NCI-H209; details: Homo sapiens, NCI-H209;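 further: growth inhibition of human NCI-H209 cells, measured by a cell viability assay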
Description: SANGER: Inhibition of human NCI-H209 cell growth in a cell viability assay.

[26] = tested on: NCI-H226; details: Homo sapiens, NCI-H226;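 further: cell viability read-out used to gauge growth inhibition of the cells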
Description: SANGER: Inhibition of human NCI-H226 cell growth in a cell viability assay.

[27] = tested on: NCI-H720; details: Homo sapiens, NCI-H720;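 further: growth inhibition of human NCI-H720 cells determined by a cell viability assay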
Description: SANGER: Inhibition of human NCI-H720 cell growth in a cell viability assay.

[28] = tested on: NH-12; details: Homo sapiens, NH-12;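 further: growth inhibition of NH-12 cells, read out with a cell viability assay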
Description: SANGER: Inhibition of human NH-12 cell growth in a cell viability assay.

[29] = tested on: NOS-1; details: Homo sapiens, NOS-1;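 further: growth inhibition of the human NOS-1 cell line, read out with a cell viability assay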
Description: SANGER: Inhibition of human NOS-1 cell growth in a cell viability assay.

[30] = tested on: NTERA-2-cl-D1; details: Homo sapiens, NTERA-2-cl-D1;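 further: inhibition of cell growth, measured with a cell viability assay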
Description: SANGER: Inhibition of human NTERA-S-cl-D1 cell growth in a cell viability assay.

[31] = tested on: P30-OHK; details: Homo sapiens, P30-OHK;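 further: growth inhibition of the P30-OHK cell line, read out with a cell viability assay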
Description: SANGER: Inhibition of human P30-OHK cell growth in a cell viability assay.

[32] = tested on: PSN1; details: Homo sapiens, PSN1;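 further: suppression of growth of human PSN1 cells, read out by a cell viability assay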
Description: SANGER: Inhibition of human PSN1 cell growth in a cell viability assay.

[33] = tested on: QIMR-WIL; details: Homo sapiens, QIMR-WIL;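 further: growth inhibition of QIMR-WIL cells, read out with a cell viability assay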
Description: SANGER: Inhibition of human QIMR-WIL cell growth in a cell viability assay.

[34] = tested on: RH-1; details: Homo sapiens, RH-1;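 further: growth inhibition of human RH-1 cells, read out with a cell viability assay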
Description: SANGER: Inhibition of human RH-1 cell growth in a cell viability assay.

[35] = tested on: RPMI-8866; details: Homo sapiens, RPMI-8866
Description: SANGER: Inhibition of human RPMI-8866 cell growth in a cell viability assay.

[36] = tested on: SF-126; details: Homo sapiens, SF-126;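 further: growth inhibition of human SF126 cells, read out with a cell viability assay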
Description: SANGER: Inhibition of human SF126 cell growth in a cell viability assay.

[37] = tested on: SF-539; details: Homo sapiens, SF-539;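 further: Read-out is a cell viability assay, with IC50 reflecting inhibition of cell growth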
Description: SANGER: Inhibition of human SF539 cell growth in a cell viability assay.

[38] = tested on: SK-LMS-1; details: Homo sapiens, SK-LMS-1;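 further: growth inhibition of human SK-LMS-1 cells, read out with a cell viability assay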
Description: SANGER: Inhibition of human SK-LMS-1 cell growth in a cell viability assay.

[39] = tested on: SW872; details: Homo sapiens, SW872;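 further: growth inhibition of SW872 cells, read out by a viability assay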
Description: SANGER: Inhibition of human SW872 cell growth in a cell viability assay.

[40] = tested on: A388; details: Homo sapiens, A388;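 further: growth inhibition of human A388 cells, read out with a cell viability assay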
Description: SANGER: Inhibition of human A388 cell growth in a cell viability assay.

[41] = tested on: A498; details: Homo sapiens, A498;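 further: growth inhibition of human A498 cells, read out with a cell viability assay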
Description: SANGER: Inhibition of human A498 cell growth in a cell viability assay.

[42] = tested on: ALL-PO; details: Homo sapiens, ALL-PO;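 further: growth inhibition of ALL-PO cells, read out by a cell viability assay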
Description: SANGER: Inhibition of human ALL-PO cell growth in a cell viability assay.

[43] = tested on: ATN-1; details: Homo sapiens, ATN-1;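 further: growth inhibition of human ATN-1 cells, read out with a cell viability assay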
Description: SANGER: Inhibition of human ATN-1 cell growth in a cell viability assay.

[44] = tested on: TE-10; details: Homo sapiens, TE-10;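 further: growth inhibition of TE-10 cells, measured by a cell viability assay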
Description: SANGER: Inhibition of human TE-10 cell growth in a cell viability assay.

[45] = tested on: TE-5; details: Homo sapiens, TE-5;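 further: inhibition of cell growth, read out by a cell viability assay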
Description: SANGER: Inhibition of human TE-5 cell growth in a cell viability assay.

[46] = tested on: TE-8; details: Homo sapiens, TE-8;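 further: growth inhibition of TE-8 cells, measured with a cell viability readout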
Description: SANGER: Inhibition of human TE-8 cell growth in a cell viability assay.

[47] = tested on: TGBC1TKB; details: Homo sapiens, TGBC1TKB;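 further: growth inhibition of TGBC1TKB cells, read out by a cell viability assay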
Description: SANGER: Inhibition of human TGBC1TKB cell growth in a cell viability assay.

[48] = tested on: CCRF-CEM; details: Homo sapiens, CCRF-CEM;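 further: inhibition of CCRF-CEM cell growth, measured by a cell viability assay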
Description: SANGER: Inhibition of human CCRF-CEM cell growth in a cell viability assay.

[49] = tested on: COLO-320-HSR; details: Homo sapiens, COLO-320-HSR;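 further: growth inhibition of COLO-320-HSR cells, determined with a cell viability assay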
Description: SANGER: Inhibition of human COLO-320-HSR cell growth in a cell viability assay.

Question: `COc1cc(-c2nn([C@H]3CC[C@H](N4CCN(C(C)=O)CC4)CC3)c3ncnc(N)c23)ccc1NC(=O)c1cc2ccccc2n1C` was tested. Which IC50 [1] did it give?
Answer: > 5.12 µM

Question: And the IC50 [2]?
Answer: > 5.12 µM

Question: And the IC50 [3]?
Answer: > 5.12 µM

Question: What about the IC50 [4] of the same compound?
Answer: > 5.12 µM

Question: And the IC50 [5]?
Answer: > 5.12 µM

Question: What about the IC50 [6] of the same compound?
Answer: > 5.12 µM

Question: And the IC50 [7]?
Answer: > 5.12 µM

Question: And the IC50 [8]?
Answer: 3.59 µM

Question: And the IC50 [9]?
Answer: > 5.12 µM

Question: And the IC50 [10]?
Answer: > 5.12 µM

Question: What about the IC50 [11] of the same compound?
Answer: > 5.12 µM

Question: What about the IC50 [12] of the same compound?
Answer: > 5.12 µM

Question: What about the IC50 [13] of the same compound?
Answer: > 5.12 µM

Question: What about the IC50 [14] of the same compound?
Answer: 0.392 µM

Question: What about the IC50 [15] of the same compound?
Answer: > 5.12 µM

Question: And the IC50 [16]?
Answer: > 5.12 µM

Question: And the IC50 [17]?
Answer: > 5.12 µM

Question: And the IC50 [18]?
Answer: > 5.12 µM

Question: What about the IC50 [19] of the same compound?
Answer: > 5.12 µM

Question: And the IC50 [20]?
Answer: 0.0746 µM

Question: What about the IC50 [21] of the same compound?
Answer: 0.483 µM

Question: And the IC50 [22]?
Answer: > 5.12 µM

Question: What about the IC50 [23] of the same compound?
Answer: > 5.12 µM

Question: What about the IC50 [24] of the same compound?
Answer: > 5.12 µM

Question: What about the IC50 [25] of the same compound?
Answer: > 5.12 µM

Question: What about the IC50 [26] of the same compound?
Answer: > 5.12 µM

Question: What about the IC50 [27] of the same compound?
Answer: > 5.12 µM

Question: What about the IC50 [28] of the same compound?
Answer: > 5.12 µM

Question: And the IC50 [29]?
Answer: 0.196 µM

Question: And the IC50 [30]?
Answer: > 5.12 µM

Question: What about the IC50 [31] of the same compound?
Answer: > 5.12 µM

Question: What about the IC50 [32] of the same compound?
Answer: 1.14 µM

Question: What about the IC50 [33] of the same compound?
Answer: 2.87 µM

Question: What about the IC50 [34] of the same compound?
Answer: > 5.12 µM

Question: And the IC50 [35]?
Answer: > 5.12 µM

Question: What about the IC50 [36] of the same compound?
Answer: > 5.12 µM

Question: What about the IC50 [37] of the same compound?
Answer: > 5.12 µM

Question: And the IC50 [38]?
Answer: > 5.12 µM

Question: And the IC50 [39]?
Answer: 0.452 µM

Question: What about the IC50 [40] of the same compound?
Answer: 4.34 µM

Question: What about the IC50 [41] of the same compound?
Answer: > 5.12 µM

Question: And the IC50 [42]?
Answer: > 5.12 µM

Question: And the IC50 [43]?
Answer: > 5.12 µM

Question: And the IC50 [44]?
Answer: 2.36 µM

Question: And the IC50 [45]?
Answer: > 5.12 µM

Question: What about the IC50 [46] of the same compound?
Answer: 0.242 µM

Question: And the IC50 [47]?
Answer: 3.63 µM

Question: What about the IC50 [48] of the same compound?
Answer: > 5.12 µM

Question: What about the IC50 [49] of the same compound?
Answer: > 5.12 µM

Question: Which IC50 [1] does the source give for `Cc1cc([N+](=O)[O-])ccc1NS(=O)(=O)c1cc(Cl)ccc1Cl` here?
Answer: 8.91 µM

Question: What about the IC50 [2] of the same compound?
Answer: 0.825 µM

Question: What about the IC50 [3] of the same compound?
Answer: 30.5 µM

Question: And the IC50 [4]?
Answer: 6.68 µM

Question: And the IC50 [5]?
Answer: > 32 µM

Question: What about the IC50 [6] of the same compound?
Answer: 11.3 µM

Question: And the IC50 [7]?
Answer: 11.4 µM

Question: What about the IC50 [8] of the same compound?
Answer: 4.59 µM

Question: And the IC50 [9]?
Answer: 2.01 µM

Question: What about the IC50 [10] of the same compound?
Answer: 2.9 µM

Question: What about the IC50 [11] of the same compound?
Answer: 6.96 µM

Question: What about the IC50 [12] of the same compound?
Answer: 3.79 µM

Question: What about the IC50 [13] of the same compound?
Answer: 23 µM

Question: What about the IC50 [14] of the same compound?
Answer: 26.9 µM

Question: And the IC50 [15]?
Answer: 4.51 µM

Question: And the IC50 [16]?
Answer: > 32 µM

Question: And the IC50 [17]?
Answer: 7.2 µM

Question: And the IC50 [18]?
Answer: 20.4 µM

Question: What about the IC50 [19] of the same compound?
Answer: 2.86 µM

Question: And the IC50 [20]?
Answer: 14.5 µM

Question: What about the IC50 [21] of the same compound?
Answer: 4.63 µM

Question: What about the IC50 [22] of the same compound?
Answer: 21.6 µM

Question: What about the IC50 [23] of the same compound?
Answer: 14.5 µM

Question: And the IC50 [24]?
Answer: > 32 µM

Question: What about the IC50 [25] of the same compound?
Answer: > 32 µM

Question: What about the IC50 [26] of the same compound?
Answer: 12.3 µM

Question: What about the IC50 [27] of the same compound?
Answer: > 32 µM

Question: And the IC50 [28]?
Answer: 14.6 µM

Question: What about the IC50 [29] of the same compound?
Answer: 2.06 µM

Question: And the IC50 [30]?
Answer: 1.43 µM

Question: What about the IC50 [31] of the same compound?
Answer: > 32 µM

Question: What about the IC50 [32] of the same compound?
Answer: 3.22 µM

Question: And the IC50 [33]?
Answer: 6.82 µM

Question: What about the IC50 [34] of the same compound?
Answer: 10.2 µM

Question: And the IC50 [35]?
Answer: 3.32 µM

Question: What about the IC50 [36] of the same compound?
Answer: 9.88 µM

Question: And the IC50 [37]?
Answer: 21 µM

Question: And the IC50 [38]?
Answer: 3.1 µM

Question: And the IC50 [39]?
Answer: 4.95 µM

Question: And the IC50 [40]?
Answer: 4.93 µM

Question: What about the IC50 [41] of the same compound?
Answer: > 32 µM

Question: What about the IC50 [42] of the same compound?
Answer: 2.34 µM

Question: And the IC50 [43]?
Answer: > 32 µM

Question: And the IC50 [44]?
Answer: 4 µM

Question: What about the IC50 [45] of the same compound?
Answer: 6.73 µM

Question: And the IC50 [46]?
Answer: 5.76 µM

Question: What about the IC50 [47] of the same compound?
Answer: 8.37 µM

Question: What about the IC50 [48] of the same compound?
Answer: 7.88 µM

Question: What about the IC50 [49] of the same compound?
Answer: 17.6 µM
